{"source": "patent US20070041899A1", "about": "“Radiolabelled substrates” (priority 2003, published 2007)", "key": {"P-glycoprotein": {"molecular_target": "P-glycoprotein (Sus scrofa, UniProt K7GMM7)", "sequence (K7GMM7 1-1248)": "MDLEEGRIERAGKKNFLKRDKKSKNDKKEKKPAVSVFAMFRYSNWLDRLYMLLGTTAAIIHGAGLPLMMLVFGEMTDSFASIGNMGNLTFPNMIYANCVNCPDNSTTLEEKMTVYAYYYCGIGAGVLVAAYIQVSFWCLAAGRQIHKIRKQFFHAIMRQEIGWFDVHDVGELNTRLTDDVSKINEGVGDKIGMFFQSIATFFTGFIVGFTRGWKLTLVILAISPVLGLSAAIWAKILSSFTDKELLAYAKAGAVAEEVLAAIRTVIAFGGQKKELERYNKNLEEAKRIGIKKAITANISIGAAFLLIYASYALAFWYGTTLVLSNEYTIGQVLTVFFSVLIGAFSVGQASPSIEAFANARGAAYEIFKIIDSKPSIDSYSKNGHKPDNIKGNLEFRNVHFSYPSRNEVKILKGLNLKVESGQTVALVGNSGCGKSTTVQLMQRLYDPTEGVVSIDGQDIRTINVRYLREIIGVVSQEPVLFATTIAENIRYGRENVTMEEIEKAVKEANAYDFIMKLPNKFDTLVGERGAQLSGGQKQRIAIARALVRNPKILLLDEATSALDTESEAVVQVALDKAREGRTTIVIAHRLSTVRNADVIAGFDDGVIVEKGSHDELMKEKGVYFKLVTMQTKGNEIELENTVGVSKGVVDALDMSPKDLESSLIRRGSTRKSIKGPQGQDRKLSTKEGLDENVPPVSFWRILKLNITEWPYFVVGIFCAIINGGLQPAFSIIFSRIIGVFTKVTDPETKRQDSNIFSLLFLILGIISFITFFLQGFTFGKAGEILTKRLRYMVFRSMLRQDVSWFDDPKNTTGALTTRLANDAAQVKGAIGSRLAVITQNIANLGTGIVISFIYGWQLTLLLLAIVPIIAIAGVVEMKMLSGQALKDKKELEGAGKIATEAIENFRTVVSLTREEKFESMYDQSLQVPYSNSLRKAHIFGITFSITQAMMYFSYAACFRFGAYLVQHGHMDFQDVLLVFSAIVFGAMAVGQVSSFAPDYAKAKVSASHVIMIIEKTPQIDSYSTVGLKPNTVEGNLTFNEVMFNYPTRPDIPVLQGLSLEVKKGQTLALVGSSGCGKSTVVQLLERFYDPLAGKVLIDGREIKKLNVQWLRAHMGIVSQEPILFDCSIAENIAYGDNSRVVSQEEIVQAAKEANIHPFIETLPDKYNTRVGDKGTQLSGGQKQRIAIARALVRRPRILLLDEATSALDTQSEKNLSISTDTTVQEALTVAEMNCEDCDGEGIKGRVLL", "conditions": "pig", "from_the_text": "(§1) The animals (pig, Yorkshire Iandrace, 37.5 kg, n=2) were scanned under terminal aneasthesia (ketamine induced isoflurane aneasthesia) on different days. For both animals an arterial cannula was inserted in one of the femoral arteries."}, "[1]": {"test": "Rate of metabolism of [^11C]loperamide (arterial blood sampling) in pig", "from_the_text": "as §1"}}, "data": [{"compound": "CN([11CH3])C(=O)C(CCN1CCC(O)(c2ccc(Cl)cc2)CC1)(c1ccccc1)c1ccccc1", "note": "[[^11C]loperamide, ^11C—N-methyl-(4-chlorophenyl)+hydroxy-N,N-dimethyl-alpha,alpha-diphenyl-1-piperidinebutyramide]", "values": [{"measurement": "Maximum increase of CNS penetration for the brain as a whole", "setting": "P-glycoprotein; at a dose of 40-50 mg/kg Cyclosporin A i.v. 30 min prior", "result": 7, "unit": "fold"}, {"measurement": "% injected dose/L (CNS penetration)", "setting": "P-glycoprotein; i.v. 1 min bolus, baseline conditions, PET", "result": "below 1%"}, {"measurement": "radioactive signal in the brain as measured with PET scanning", "setting": "P-glycoprotein; i.v. various doses of cyclosporin A 30 min prior to injection", "result": "dose dependent increase"}, {"measurement": "rate of metabolism: parent at 60 min post administration", "setting": "[1]; at doses of CsA >10 mg/kg", "result": "approx. 80 % parent"}, {"measurement": "rate of metabolism: parent at 60 min post administration", "setting": "[1]; without CsA >10 mg/kg (before decrease)", "result": "approx. 50 % parent"}]}]}
